Assay results: ChEMBL document CHEMBL6074675, “4-Substituted-2-Thiazole Amides as Viral Replication Inhibitors of Alphaviruses” (J Med Chem, 2024)
≈ marks a conversion by molar mass, not a printed value.

Columns and labels:
[1] = system: West Nile virus; experiment: Antiviral activity against West Nile virus NY99 infected in human HEK293 cells assessed as log reduction of virus titer at 10 uM measured at 3 days post-infection by focus-forming assay; assay type: functional; conditions: time 3 day
[2] = Kinetic solubility of the compound in simulated intestinal fluid at pH 7.5 by LC-MS analysis; assay type: physicochemical; conditions: read-out: Kinetic_solubility
[3] = Half life of the compound in mouse liver microsomes in presence of NADPH by LC-MS/MS analysis; assay type: ADME, Microsome
[4] = system: Zika virus; experiment: Antiviral activity against Zika virus PRABC59 infected in human HEK293 cells assessed as log reduction of virus titer at 10 uM measured at 3 days post-infection by focus-forming assay; assay type: functional; conditions: time 3 day
[5] = system: dengue virus type 2; experiment: Antiviral activity against Dengue virus 2 NGC infected in human HEK293 cells assessed as log reduction of virus titer at 10 uM measured at 3 days post-infection by focus-forming assay; assay type: functional; conditions: time 3 day
[6] = system: dengue virus type 2; experiment: Antiviral activity against Dengue virus 2 NGC infected in human HEK293 cells assessed as reduction of virus load measured at 3 days post-infection by focus-forming assay; assay type: functional; conditions: HEK293, 72 h, time 3 day
[7] = system: West Nile virus; experiment: Antiviral activity against West Nile virus NY99 infected in human HEK293 cells assessed as reduction of virus load measured at 3 days post-infection by focus-forming assay; assay type: functional; conditions: NY99, HEK293, 72 h, time 3 day
[8] = Octanol/PBS buffer distribution coefficient, logD of the compound at pH 7.5 by LC-MS analysis; assay type: physicochemical
[9] = system: Venezuelan equine encephalitis virus; experiment: Antiviral activity against VEEV TC-83 infected in human NHDF cells assessed as log reduction of virus titer at 10 uM treated with cells at 1 hr prior to infection and measured at 24 hrs post-infection by plaque assay; assay type: functional; conditions: time 25 hrs
[10] = Cytotoxicity against human HEK293 cells; assay type: toxicity, cell-based
[11] = Half life of the compound in human liver microsomes in presence of NADPH by LC-MS/MS analysis; assay type: ADME, Microsome
[12] = Cytotoxicity against human NHDF cells assessed as reduction in cell viability incubated for 24 hrs by CellTiter Glo luminescence assay; assay type: toxicity, cell-based
[13] = system: Venezuelan equine encephalitis virus; experiment: Antiviral activity against VEEV TC-83 infected in human NHDF cells assessed as reduction of virus titer treated with cells at 1 hr prior to infection and measured at 24 hrs post-infection by plaque assay; assay type: functional; conditions: TC-83, NHDF, time 25 hrs
[14] = Cytotoxicity against human NHDF cells deficient of IRF3 assessed as reduction in cell viability incubated for 72 hrs by CellTiter Glo luminescence assay; assay type: toxicity, cell-based
[15] = system: Chikungunya virus; experiment: Antiviral activity against Chikungunya virus 181/25 infected in human NHDF cells assessed as reduction of virus titer treated with cells at 1 hr prior to infection and measured at 24 hrs post-infection by plaque assay; assay type: functional, organism-based; conditions: 181/25, NHDF, time 25 hrs
[16] = system: Chikungunya virus; experiment: Antiviral activity against Chikungunya virus 181/25 infected in human NHDF cells assessed as log reduction of virus titer at 10 uM treated with cells at 1 hr prior to infection and measured at 24 hrs post-infection by plaque assay; assay type: functional; conditions: time 25 hrs
[17] = system: Zika virus; experiment: Antiviral activity against Zika virus PRABC59 infected in human HEK293 cells assessed as reduction of virus load measured at 3 days post-infection by focus-forming assay; assay type: functional; conditions: PRABC59, HEK293, 72 h, time 3 day

Row | Compound | log(activity) [1] | solubility kinetic [2] [µM] | half-life [3] [min] | log(activity) [4] | log(activity) [5] | EC90 [6] [µM] | EC90 [7] [µM] | logD [8] | log(activity) [9] | CC50 [10] [µM] | half-life [11] [min] | CC50 at 24 h [12] [µM] | EC90 [13] [µM] | CC50 at 72 h [14] [µM] | EC90 [15] [µM] | log(activity) [16] | EC90 [17] [µM]
1 | CSc1ncccc1C(=O)Nc1nc(-c2cccc(-c3cccc(C#N)c3)c2)cs1 | 2.7 | < 1 | 31 | 3.5 | 2.9 | 0.3 | 1.5 | 3 | 5.2 | > 30 | 21 | > 30 | 0.35 | > 30 | 0.1 | 5.3 | 0.3
2 | CSc1ncccc1C(=O)Nc1nc(-c2cccc(-c3ccccn3)c2)cs1 | – | < 1 | 8 | – | – | – | – | > 3.83 | – | – | 15 | – | – | > 30 | 0.7 | 4 | –
3 | CSc1ncccc1C(=O)Nc1nc(-c2cccc(Nc3ccc(CN)cc3)c2)cs1 | – | 33 (≈ 14.8 µg/mL) | 234 | – | – | – | – | 2.2 | – | – | 37 | – | – | 15.4 | 9.8 | 1.2 | –
4 | O=C(Nc1nc(-c2ccc3ccccc3c2)cs1)c1cc(F)c(O)c(F)c1 | – | < 1 | 36 | – | – | – | – | > 3.45 | – | – | 137 | – | – | 20 | 2.9 | 7.6 | –
5 | CSc1ncccc1C(=O)Nc1nc(-c2cc(F)cc(-c3ccc(C#N)cc3)c2)cs1 | – | < 1 | 123 | – | – | – | – | > 4.09 | – | – | 53 | – | – | > 30 | – | 6.1 | –
6 | CSc1ncccc1C(=O)Nc1nc(-c2cc(C(=O)O)cc(-c3ccc(C#N)cc3)c2)cs1 | – | < 1 | > 300 | – | – | – | – | 1.9 | – | – | > 300 | – | – | > 40 | – | 0 | –
7 | CSc1ncccc1C(=O)Nc1nc(-c2cccc(-c3ccc(C#N)c(O)c3)c2)cs1 | – | 3 (≈ 1.33 µg/mL) | 49 | – | – | – | – | > 3.91 | – | – | 43 | – | – | > 30 | – | 8.5 | –
8 | CC(C)(C#N)c1ccc(C(=O)Nc2nc(-c3ccc4ccccc4c3)cs2)cc1 | – | < 1 | 129 | – | – | – | – | > 3.85 | – | – | 98 | – | – | > 30 | 1.5 | 2.6 | –
9 | CSc1ncccc1C(=O)Nc1nc(-c2cccc(Nc3ccc(C#N)c(O)c3)c2)cs1 | – | 1 (≈ 0.46 µg/mL) | 35 | – | – | – | – | > 3.46 | – | – | 43 | – | – | 15.9 | 10.1 | 1.2 | –
10 | Cc1ncccc1C(=O)Nc1nc(-c2ccc3ccccc3c2)cs1 | – | 3 (≈ 1.04 µg/mL) | 26 | – | – | – | – | > 4.27 | – | – | 26 | – | – | > 30 | 3.2 | 1.9 | –
11 | CC(C)(C(=O)O)c1ccc(C(=O)Nc2nc(-c3ccc4ccccc4c3)cs2)cc1 | – | 64 (≈ 26.7 µg/mL) | 213 | – | – | – | – | 2.1 | – | – | 292 | – | – | > 30 | – | 0 | –
12 | CSc1ncccc1C(=O)Nc1nc(-c2ccc3ncccc3c2)cs1 | – | 56 (≈ 21.2 µg/mL) | 13 | – | – | – | – | 3.8 | – | – | 17 | – | – | 18 | 7.9 | 1.2 | –
13 | CSc1ncccc1C(=O)Nc1nc(-c2cccc(Nc3ccc(C#N)cn3)c2)cs1 | – | < 1 | 17 | – | – | – | – | – | – | – | 19 | – | – | 40 | 4.8 | 2.2 | –
14 | CSc1ncccc1C(=O)Nc1nc(-c2cccc(Nc3cccc(C#N)c3)c2)cs1 | 4.3 | < 1 | 33 | 3.4 | 3.7 | 0.5 | 1.1 | > 3.54 | 7.3 | > 30 | 25 | > 30 | 0.6 | > 30 | – | 5.7 | 0.4
15 | CC(C)(C)c1ccc(C(=O)Nc2nc(-c3ccc4ccccc4c3)cs2)cc1 | – | < 1 | 8 | – | – | – | – | > 3.32 | – | – | 49 | – | – | > 30 | 0.1 | 4.3 | –
16 | CSc1ncccc1C(=O)Nc1nc(-c2cc(-c3ccc(C#N)cc3)ccc2F)cs1 | – | < 1 | 69 | – | – | – | – | 2 | – | – | 85 | – | – | > 30 | – | 5.8 | –
17 | CC(C)(C)c1ncc(C(=O)Nc2nc(-c3ccc4ccccc4c3)cs2)s1 | – | < 1 | 9 | – | – | – | – | > 3.03 | – | – | 51 | – | – | > 30 | 3.5 | 7.5 | –
18 | CSc1ncccc1C(=O)Nc1nc(-c2cccc(N3CCNCC3)c2)cs1 | – | 59 (≈ 24.3 µg/mL) | 211 | – | – | – | – | 1.8 | – | – | > 300 | – | – | > 30 | – | 8.7 | –
19 | CSc1ncccc1C(=O)Nc1nc(-c2cccc(-c3ccc(C#N)cn3)c2)cs1 | – | < 1 | 34 | – | – | – | – | > 3.97 | – | – | 25 | – | – | > 30 | – | 6 | –
20 | CSc1ncccc1C(=O)Nc1nc(-c2cccc(Nc3ccc(C#N)c(C(=O)O)c3)c2)cs1 | – | 84 (≈ 41 µg/mL) | 72 | – | – | – | – | 1.4 | – | – | 145 | – | – | > 40 | > 40 | 0.15 | –
21 | COc1cc(Nc2cccc(-c3csc(NC(=O)c4cccnc4SC)n3)c2)ccc1C#N | 2.9 | < 1 | 34 | 3 | 3 | 0.4 | 1.2 | > 4.33 | 2 | > 30 | 25 | > 30 | 0.21 | > 30 | – | 5.1 | 0.5
22 | CSc1ncccc1C(=O)Nc1nc(-c2cccc(-c3ccc(C#N)cc3)c2)cs1 | – | < 1 | 57 | – | – | – | – | > 4.66 | – | – | 39 | – | – | > 30 | – | 4.7 | –
23 | CSc1ncccc1C(=O)Nc1nc(-c2cc(Nc3ccc(C#N)cc3)cc(N3CCOCC3)c2)cs1 | – | < 1 | 64 | 1.7 | 1.9 | 1.8 | 24 | > 3.92 | 3.81 | > 30 | 15 | > 30 | 0.45 | > 40 | 0.1 | 5.1 | 0.8
24 | CSc1ncccc1C(=O)Nc1nc(-c2cccc(-c3ccccc3)c2)cs1 | – | < 1 | 51 | – | – | – | – | > 4.15 | – | – | 34 | – | – | > 30 | – | 7.8 | –
